# From patent US20250230193A1, “CYCLIC COMPOUND HAVING SELECTIVE KRAS INHIBITORY EFFECT ON HRAS AND NRAS” (CHUGAI SEIYAKU KABUSHIKI KAISHA, priority 2022, published 2025)
# *1 amine or outer side, *2 acyl side, *3 side chain or, on linkers, in order; H or OH if unused. Where a SMILES comes first, the peptide text is derived from it. Bridges are numbered along the chain shown (N, C = ends). [ ]: non-standard residue; d: D form. The star is where a group is joined. hPhe(3,5-F2-4-CF3) = N[C@@H](CCc1cc(F)c(C(F)(F)F)c(F)c1)C(=O)O; hPhe(3-Cl-4-CF3) = N[C@@H](CCc1ccc(C(F)(F)F)c(Cl)c1)C(=O)O; NPrPhe(4-CF3) = CCCN[C@@H](Cc1ccc(C(F)(F)F)cc1)C(=O)O; X34 = Cc1ccc(C[C@@H](C(=O)[*:2])N(CCC(C)C)[*:1])cc1; NEtPhe(4-Me) = CCN[C@@H](Cc1ccc(C)cc1)C(=O)O; NMePhe(4-Me) = CN[C@@H](Cc1ccc(C)cc1)C(=O)O; X16 = O=C([C@@H](N[*:1])C1CC(F)(F)C1)[*:2]; NMeGly(cPent) = CN[C@H](C(=O)O)C1CCCC1; X46 = CC1(C)CN([*:1])[C@@H]1C(=O)[*:2]; NMeD = CN[C@@H](CC(=O)O)C(=O)O; NMeL = CN[C@@H](CC(C)C)C(=O)O; Morpholide = C1CN(*)CCO1; NMeA = CN[C@@H](C)C(=O)O; NMeAib = CNC(C)(C)C(=O)O; Nle = CCCC[C@H](N)C(=O)O; Piperidide = C1CCN(*)CC1; Ac5c = NC1(C(=O)O)CCCC1; Aze = O=C(O)[C@@H]1CCN1; NPrGly = CCCNCC(=O)O; NEtG = CCNCC(=O)O; Sar = CNCC(=O)O
# Key:
# [1] = biological target: GDP-bound HRAS wild-type protein (Homo sapiens, UniProt P01112); assay: Binding to HRAS by surface plasmon resonance (SPR), Single Cycle Kinetics; details: SPR
# GDP-bound HRAS wild-type protein, sequence (P01112 whole entry): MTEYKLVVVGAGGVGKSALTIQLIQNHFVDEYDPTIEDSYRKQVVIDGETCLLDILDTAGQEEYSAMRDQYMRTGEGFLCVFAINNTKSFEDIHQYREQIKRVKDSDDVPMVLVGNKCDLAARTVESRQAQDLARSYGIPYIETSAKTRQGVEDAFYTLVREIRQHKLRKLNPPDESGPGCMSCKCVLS
# [2] = biological target: GDP-bound NRAS wild-type protein (Homo sapiens, UniProt P01111); assay: Binding to NRAS by surface plasmon resonance (SPR), Single Cycle Kinetics; details: SPR
# GDP-bound NRAS wild-type protein, sequence (P01111 whole entry): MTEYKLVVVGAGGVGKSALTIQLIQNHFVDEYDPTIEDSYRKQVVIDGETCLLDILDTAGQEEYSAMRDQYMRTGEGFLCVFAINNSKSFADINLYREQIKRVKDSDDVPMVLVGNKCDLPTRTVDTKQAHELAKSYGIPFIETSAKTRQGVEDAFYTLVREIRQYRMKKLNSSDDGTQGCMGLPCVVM
SMILES,HRAS/KRAS (ratio of KD for GDP-bound HRAS wild-type to KD for KRAS) ([1]; KD ratio HRAS/KRAS),NRAS/KRAS (ratio of KD for GDP-bound NRAS wild-type to KD for KRAS) ([2]; KD ratio NRAS/KRAS),other results
CCO[C@@H]1C[C@H]2C(=O)NC3(CC(C)(C)C3)C(=O)N(C)[C@@H](C3CCCC3)C(=O)N(C)[C@H](C(=O)N(CC)CC)CC(=O)N(C)[C@@H](CC)C(=O)N[C@@H]([C@@H](C)CC)C(=O)N(C)CC(=O)N(C)[C@H]3C/C=C\CCN(C3=O)[C@@H](Cc3ccc(C)cc3)C(=O)N(C)CC(=O)N[C@@H](CCc3ccc(C(F)(F)F)c(OC)c3)C(=O)N2C1 [PP1881],,,"HRAS/KRAS (ratio of KD value for HRAS to KD value for KRAS) ([1]; KD ratio, GDP-bound HRAS wild-type vs GDP-bound KRAS wild-type): A (a compound having 10 or more and less than 20 is denoted as A); NRAS/KRAS (ratio of KD value for NRAS to KD value for KRAS) ([2]; KD ratio, GDP-bound NRAS wild-type vs GDP-bound KRAS wild-type): A (a compound having 10 or more and less than 20 is denoted as A)"
CCCN1CC(=O)NC2(CCCC2)C(=O)N(C)[C@@H](C2CCCC2)C(=O)N(C)[C@H](C(=O)N2CCOCC2)CC(=O)N(C)[C@@H](CC(C)C)C(=O)N[C@@H]([C@@H](C)CC)C(=O)N(C)[C@@H](C)C(=O)N2CC[C@H]2C(=O)N(CCC)[C@@H](Cc2ccc(C(F)(F)F)cc2)C(=O)N(C)CC(=O)N[C@@H](CCc2ccc(C(F)(F)F)c(Cl)c2)C1=O [PP0288] ([NMeL]I[NMeA][Aze][NPrPhe(4-CF3)][Sar][hPhe(3-Cl-4-CF3)][NPrGly][Ac5c][NMeGly(cPent)][NMeD]-Morpholide; lactam N-11),B (a compound having 3 or more and less than 10 is denoted as B),C (A compound having a KD ratio of 0.1 or more and less than 3 is denoted as C),
CCCC[C@@H]1NC(=O)[C@H](CCc2ccc(C(F)(F)F)c(Cl)c2)NC(=O)CN(C)C(=O)[C@H](Cc2ccc(C)cc2)N(CC)C(=O)CN(C)C(=O)CN(C)C(=O)[C@H]([C@@H](C)CC)NC(=O)[C@H](CC(C)C)N(C)C(=O)C[C@@H](C(=O)N2CCCCC2)N(C)C(=O)[C@H](CC(C)C)NC(=O)C(C)(C)N(C)C1=O [PP0050] ([NMeL]I[Sar][Sar][NEtPhe(4-Me)][Sar][hPhe(3-Cl-4-CF3)][Nle][NMeAib]L[NMeD]-Piperidide; lactam N-11),C (A compound having a KD ratio of 0.1 or more and less than 3 is denoted as C),B (a compound having 3 or more and less than 10 is denoted as B),
"CCCN1C(=O)CN(C)C(=O)CN(C)C(=O)[C@H](C2CC(F)(F)C2)NC(=O)[C@H](CC(C)C)N(C)C(=O)C[C@@H](C(=O)N2CCOCC2)N(C)C(=O)[C@H](C2CCCC2)N(C)C(=O)C2(CCCC2)NC(=O)[C@@H]2CCCN2C(=O)[C@H](CCc2cc(F)c(C(F)(F)F)c(F)c2)NC(=O)CN(C)C(=O)[C@@H]1Cc1ccc(C(F)(F)F)cc1 [PP0769] ([NMeL][X16][Sar][Sar][NPrPhe(4-CF3)][Sar][hPhe(3,5-F2-4-CF3)]P[Ac5c][NMeGly(cPent)][NMeD]-Morpholide; lactam N-11)",,,HRAS/KRAS (ratio of KD value with respect to GDP-bound HRAS wild-type protein to KD value with respect to KRAS) ([1]; KD ratio HRAS/KRAS): C (A compound having a KD ratio of 0.1 or more and less than 3 is denoted as C); NRAS/KRAS (ratio of KD value with respect to GDP-bound NRAS wild-type protein to KD value with respect to KRAS) ([2]; KD ratio NRAS/KRAS): B (a compound having 3 or more and less than 10 is denoted as B)
CC[C@H](C)[C@@H]1NC(=O)[C@H](CC(C)C)N(C)C(=O)C[C@@H](C(=O)N2CCOCC2)N(C)C(=O)[C@H](C2CCCC2)N(C)C(=O)C2(CCCC2)NC(=O)[C@@H]2CCCN2C(=O)[C@H](CCc2ccc(C(F)(F)F)c(Cl)c2)NC(=O)CN(CC)C(=O)[C@H](Cc2ccc(C)cc2)N(C)C(=O)CN(C)C(=O)CN(C)C1=O [PP0025] ([NMeL]I[Sar][Sar][NMePhe(4-Me)][NEtG][hPhe(3-Cl-4-CF3)]P[Ac5c][NMeGly(cPent)][NMeD]-Morpholide; lactam N-11),C (A compound having a KD ratio of 0.1 or more and less than 3 is denoted as C),C (A compound having a KD ratio of 0.1 or more and less than 3 is denoted as C),
CCCN1C(=O)CN(C)C(=O)[C@H]2N(CC2(C)C)C(=O)[C@H]([C@@H](C)CC)NC(=O)[C@H](CC(C)C)N(C)C(=O)C[C@@H](C(=O)N2CCOCC2)N(C)C(=O)[C@H](C2CCCC2)N(C)C(=O)C2(CCCC2)NC(=O)[C@@H]2CCCN2C(=O)[C@H](CCc2ccc(C(F)(F)F)c(Cl)c2)NC(=O)CN(C)C(=O)[C@@H]1Cc1ccc(C(F)(F)F)cc1 [PP0256] ([NMeL]I[X46][Sar][NPrPhe(4-CF3)][Sar][hPhe(3-Cl-4-CF3)]P[Ac5c][NMeGly(cPent)][NMeD]-Morpholide; lactam N-11),C (A compound having a KD ratio of 0.1 or more and less than 3 is denoted as C),B (a compound having 3 or more and less than 10 is denoted as B),
CC[C@H](C)[C@@H]1NC(=O)[C@H](CC(C)C)N(C)C(=O)C[C@@H](C(=O)N2CCOCC2)N(C)C(=O)[C@H](C2CCCC2)N(C)C(=O)C2(CCCC2)NC(=O)[C@@H]2CCCN2C(=O)[C@H](CCc2ccc(C(F)(F)F)c(Cl)c2)NC(=O)CN(C)C(=O)[C@H](Cc2ccc(C)cc2)N(CCC(C)C)C(=O)[C@@H]2CCN2C(=O)[C@H](C)N(C)C1=O [PP0086] ([NMeL]I[NMeA][Aze][X34][Sar][hPhe(3-Cl-4-CF3)]P[Ac5c][NMeGly(cPent)][NMeD]-Morpholide; lactam N-11),B (a compound having 3 or more and less than 10 is denoted as B),C (A compound having a KD ratio of 0.1 or more and less than 3 is denoted as C),
